Where a name gives a salt, the structure may show the parent alone.
Molecular target: T1, human GnRH receptor (Homo sapiens, UniProt P30968)
T1 construct: expressed in transfected cells; host or cells: CHO (Chinese Hamster Ovary) cells
T1 sequence (P30968 1-328): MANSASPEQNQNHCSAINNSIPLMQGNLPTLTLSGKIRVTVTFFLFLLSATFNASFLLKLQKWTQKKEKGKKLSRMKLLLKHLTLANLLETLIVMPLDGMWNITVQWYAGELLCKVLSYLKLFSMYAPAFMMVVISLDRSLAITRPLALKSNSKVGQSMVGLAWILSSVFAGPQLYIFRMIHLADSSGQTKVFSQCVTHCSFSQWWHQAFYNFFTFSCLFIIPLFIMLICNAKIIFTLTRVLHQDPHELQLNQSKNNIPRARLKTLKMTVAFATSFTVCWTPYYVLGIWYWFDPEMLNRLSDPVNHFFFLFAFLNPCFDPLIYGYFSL
Test: 125I-leuprorelin binding inhibition, membrane fraction of CHO cells expressing human GnRH receptors
Conditions: CHO cell membrane fraction, 25° C., 60 minutes, Hill plot, read-out: 125I-leuprorelin binding inhibitory rate IC50 value

- IC50: 50 nM
Compound: CCOC(=O)c1cn(Cc2c(F)cccc2F)c2cc(-c3ccc(NC(=O)CC)cc3)c(CN(C)Cc3ccccc3)cc2c1=O [Example 3, 6-(N-benzyl-N-methylaminomethyl)-1,4-dihydro-1-(2,6-difluorobenzyl)-7-(4-propionylaminophenyl)-4-oxoquinoline-3-carboxylic acid ethyl ester hydrochloride]

Reference: patent publication US5807869A, “Quinoline derivatives, their production and use” (Takeda Chemical Industries, Ltd., priority 1995, dated 1998)
